The source of these data is US20230212225A1, “PEPTIDE COMPOSTIONS AND METHODS FOR TREATING TAUOPATHIES” (AXOLTIS PHARMA, priority 2019, published 2023).

Each structure is given as a SMILES string. Like-named read-outs stand apart in the source and are kept apart here. Where a SMILES comes first, the peptide text is derived from it. Bridges are numbered along the chain shown (N, C = ends).

Data set [1] in a line: Preliminary PK study in rat. Format: in vivo. The conditions noted are these: slow bolus IV 49 mg/kg of NX210. The protocol:
(§1) Therefore NX210 PK in animals is followed by the measurement of its cyclic form NX218. First a preliminary PK study in rat was performed in order to validate the method for detecting NX218 in plasma then translated to monkey by performing a more robust PK study with repeated experiments. All PK studies were performed with NaCl 0.9% as vehicle.

Data set [2] can be described thus: PK study in monkey. Format: in vivo. To be noted: for half-life: plasma, iv, 10 mg/kg. The protocol:
as §1
In the 3 monkeys tested, data were reproducible after repeated testing at different days (D22, D37 and D51), after bolus IV injection of 10 mg/kg of NX210.

The subject of data set [3] is Aβ25-35-induced short-term memory deficits. Briefly: Spontaneous alternation performance (Y-maze), treatment started 1 hour after Aβ25-35 injection, tested D08. Format: in vivo, mice. To be noted: for Y-maze % (Sc.Aβ / Vhc = 100) / Y-maze Mean, percentage of alternation: D08.
Data set [4] deals with Aβ25-35-induced long-term memory deficits. Kind of data set: Step-through passive avoidance test (STPA), D09-D10. Format: in vivo, mice.
Data set [5] deals with Aβ25-35-induced short-term memory deficits. Kind of data set: Long-term study (120 days): weekly Y-maze, NX218 and/or DPZ based treatments. Format: in vivo, mice. As for the experimental part:
To investigate the potential of NX218 treatment to maintain cognitive restoration for a longer duration and to work as a 2nd line treatment when DPZ lose its activity: a long-term study (120 days) was performed in the Aβ25-35 mouse model of Tauopathies.
Mice were assigned to 6 treatment groups with 5-6 animals per group as described below.
From D01 until D120, mice of groups 1 and 2 were administered IP once a day (o.d.) with vehicle (water for injection).
Test compound NX218: • From D11 until D38, mice of group 3 were administered IP o.d. with NX218 at 2 mg/kg (mice were not treated with vehicle from D01 until D10). • From D01 until D120, mice of group 4 were administered IP o.d. with NX218 at 2 mg/kg.
DPZ rescued by test compound NX218: • From D01, mice of group 5 were administered PO by gavage o.d with DPZ at its active dose (1 mg/kg) until its effect disappears. Its efficacy disappeared on D36. DPZ was administered until D43 and then from D44, NX218 replaced DPZ until D78 via IP administration once a day at its active dose (2 mg/kg). • From D79 until D99: NX218 was administered via IP administration o.d. at a higher dose (4 mg/kg). • From D100 until D113 NX218 was administered via IP administration o.d. at a higher dose (8 mg/kg). • Administration of NX218 was stopped from D114 until animals were sacrificed.
Test compound NX218 in combination with DPZ: • From D01 until D120, mice of group 6 were co-administered with NX218 and DPZ at their respective subactive doses: • NX218: IP o.d., 0.1 mg/kg • DPZ: PO o.d., 0.25 mg/kg
All groups performed one behavioral test every week starting on D08 (7 days after Aβ25-35 peptide injection) to monitor the effects of the compounds:
Spontaneous alternation procedure in the Y-maze (YM, assessing spatial short-term/working memory as described in example 3) on D08, D15, D22, D29, D36, D43, D50, D57, D64, D71, D78, D85, D92, D99, D106, D113 and D120.

[6] abbreviates: monkey plasma NX218 after bolus IV 10 mg/kg NX210, mean.
Setting [7] is: once a day, NX210 0.1 mg/kg, NX218 0.1 mg/kg, DPZ 0.25 mg/kg.

`N=C(N)NCCC[C@@H]1NC(=O)[C@H](CO)NC(=O)[C@@H](NC(=O)[C@H](CO)NC(=O)[C@H](CO)NC(=O)[C@H](Cc2c[nH]c3ccccc23)NC(=O)CNC(=O)[C@H](CO)NC(=O)[C@@H](N)Cc2c[nH]c3ccccc23)CSSC[C@@H](C(=O)NCC(=O)O)NC(=O)[C@H](CO)NC1=O` [NX218, W-S-G-W-S-S-C-S-R-S-C-G] (H-WSGWSSCSRSCG-OH; disulfide 7-11; N-terminus and C-terminus assumed): in data set [1], the “time after injection from which NX218 became impossible to quantify in plasma” value was 3 h. Besides, in data set [2] (setting [6]), the area under the curve (AUC) is 960 ng·h/mL, the AUC(0-inf) was 1060 ng·h/mL, the peak concentration (Cmax) was 19300 ng/mL and the time to peak (Tmax) was determined as 0 h. The compound also had a clearance in data set [2] (setting [6]) of 190 mL/min/kg. For the same compound, the Vd in data set [2] (monkey plasma NX218 after bolus IV 10 mg/kg NX210, mean, read-out: VSS) amounted to 0.0936 L/kg. The “plasma concentration course after injection, in words” value in data set [2] (monkey, bolus IV 10 mg/kg of NX210) was “rapidly decreased up to 30 minutes”. Further, the half-life in data set [2] (monkey, monkey plasma NX218 after bolus IV 10 mg/kg NX210, mean, read-out: t½) is 12.7 min. For the same compound, in data set [2] (monkey, monkey, bolus IV 10 mg/kg NX210, NX218 measured, read-out: half-life), the half-life is about 12 min.
Take `COc1cc2c(cc1OC)C(=O)C(CC1CCN(Cc3ccccc3)CC1)C2` (centres unmarked) [DPZ, Donepezil, reference compound]: in data set [3] (PO 0.25 mg/kg once a day), the “Y-maze % (Sc.Aβ / Vhc = 100)” value turned out to be 56% and the “Y-maze Mean, percentage of alternation” value is 41.82%. Also, in data set [3] (PO 1 mg/kg once a day), the “Y-maze % (Sc.Aβ / Vhc = 100)” value turned out to be 93% and the “Y-maze Mean, percentage of alternation” value turned out to be 68.90%. Also, the “effect on Aβ25-35-induced short-term memory deficits (Y-maze) at subactive dose, in words” value in data set [3] (setting [7]) is given as “do not impede”. Moreover, in data set [4] (PO 0.25 mg/kg once a day), the “EL % (Sc.Aβ / Vhc = 100)” value was determined as 445%; the “EL Mean, escape latency, retention session” value is 88.67 s; the “STL % (Sc.Aβ / Vhc = 100)” value stood at 39%; the “STL Mean, step-through latency, retention session” value stood at 109.33 s. Besides, in data set [4] (PO 1 mg/kg once a day), the “EL % (Sc.Aβ / Vhc = 100)” value was determined as 122%; the “EL Mean, escape latency, retention session” value was 24.25 s; the “STL % (Sc.Aβ / Vhc = 100)” value worked out at 94%; the “STL Mean, step-through latency, retention session” value came to 265.83 s. Besides, in data set [4] (setting [7]), the “effect on contextual long-term memory deficits (STL and EL) at subactive dose, in words” value is “do not impede”. Also, in data set [5] (Group 5, DPZ PO 1 mg/kg o.d.), the “duration of efficacy (Y-maze), in words” value is “efficient only until D36”. For the same compound, in data set [5] (Group 5, after 4 weeks of DPZ treatment), the “% of alternation at DPZ resistance” value came to 37%. In addition, the “Y-maze (D43) Mean (percentage of alternation)” value in data set [5] (Group 5: DPZ 1 mg/kg PO o.d. D01-D43, tested D43) turned out to be 38.73%. For the same compound, in data set [5] (Group 5: DPZ 1 mg/kg PO o.d. D01-D43, tested D43, Group 1 = 100), the “Y-maze (D43) %” value turned out to be 52%. The “Y-maze (D08) Mean, percentage of alternation” value in data set [5] (Group 5: DPZ 1 mg/kg PO o.d. from D01, tested D08) is recorded as 72.08%. The “Y-maze (D08) %” value in data set [5] (Group 5: DPZ 1 mg/kg PO o.d. from D01, tested D08, Group 1 = 100) was found to be 98%. Moreover, the “Y-maze (D15) Mean, percentage of alternation” value in data set [5] (Group 5: DPZ 1 mg/kg PO o.d. from D01, tested D15) is 76.00%. Also, in data set [5] (Group 5: DPZ 1 mg/kg PO o.d. from D01, tested D15, Group 1 = 100), the “Y-maze (D15) %” value is listed as 98%. Also, the “Y-maze (D22) Mean, percentage of alternation” value in data set [5] (Group 5: DPZ 1 mg/kg PO o.d. from D01, tested D22) was determined as 79.07%. The “Y-maze (D22) %” value in data set [5] (Group 5: DPZ 1 mg/kg PO o.d. from D01, tested D22, Group 1 = 100) came to 106%. In data set [5] (Group 5: DPZ 1 mg/kg PO o.d. from D01, tested D29), the “Y-maze (D29) Mean, percentage of alternation” value is 62.05%. Further, the “Y-maze (D29) %” value in data set [5] (Group 5: DPZ 1 mg/kg PO o.d. from D01, tested D29, Group 1 = 100) is 80%. For the same compound, the “Y-maze (D36) Mean (percentage of alternation)” value in data set [5] (Group 5: DPZ 1 mg/kg PO o.d. from D01, tested D36) turned out to be 36.23%. Also, the “Y-maze (D36) %” value in data set [5] (Group 5: DPZ 1 mg/kg PO o.d. from D01, tested D36, Group 1 = 100) was 49%.
